# Entries after “also recorded” stand apart in the source; their conditions may differ. No end group written: not given here.
# Columns and labels:
# [1] = tested on: α-COP R13A K15S R57S mutant (α1-327); assay: ITC with α1-327 R13A K15S R57S mutant; type: binding, yeast; details: 10°C, 300 mM NaCl
# Experimental: (§1) ITC experiments were conducted on a Microcal VP-ITC machine (GE Healthcare) at 10°C. Molar peptide concentration in the syringe was ten times that of protein in the cell. β'-COP constructs were gel filtered into 50 mM HEPES (pH 7.4) and 100 mM NaCl, and α-COP constructs were gel filtered into 50 mM HEPES (pH 7.4) and 300 mM NaCl prior to runs. Titration data were analyzed in ORIGIN to obtain values for stoichiometry (N), equilibrium association constant (Ka), and enthalpy of binding. All experiments were carried out at least three times with appropriate standard deviations reported.
# (§2) Figure S3, related to Figure 2. Model and in vitro data of α-COP 1-327 binding to a KKxx
# (§3) motif. A homology model of residues 1-327 of yeast α-COP binding to the KKTN motif from
# (§4) (1 picture or pasted object on this page, not shown here)
# (§5) Homology model of the α-COP N-terminal propeller
# (§6) Isothermal titration calorimetry
# [2] = tested on: α-COP D229A E273A mutant (α1-327); assay: ITC with α1-327 D229A E273A mutant; type: binding, yeast; details: 10°C, 300 mM NaCl
# Experimental: as §1, §2, §3, §4, §5, §6
# [3] = tested on: α-COP D96A D115A mutant (α1-327); assay: ITC with α1-327 D96A D115A mutant; type: binding, yeast; details: 10°C, 300 mM NaCl
# Experimental: as §1, §2, §3, §4, §5, §6
# [4] = molecular target: T1, yeast β'-COP 1-304 (N-terminal WD-repeat domain), wild-type (Saccharomyces cerevisiae, UniProt P41811); assay: ITC of dilysine motif peptides with wild-type β'1-304; type: binding; details: for binding by ITC (in words): 10°C, 50 mM HEPES pH 7.4, 100 mM NaCl, at least three runs
# T1 construct: GST (thrombin-cleavable) (C, cleaved yes); made in house; host or cells: E. coli BL21(DE3)pLysS
# T1 sequence (P41811 1-304): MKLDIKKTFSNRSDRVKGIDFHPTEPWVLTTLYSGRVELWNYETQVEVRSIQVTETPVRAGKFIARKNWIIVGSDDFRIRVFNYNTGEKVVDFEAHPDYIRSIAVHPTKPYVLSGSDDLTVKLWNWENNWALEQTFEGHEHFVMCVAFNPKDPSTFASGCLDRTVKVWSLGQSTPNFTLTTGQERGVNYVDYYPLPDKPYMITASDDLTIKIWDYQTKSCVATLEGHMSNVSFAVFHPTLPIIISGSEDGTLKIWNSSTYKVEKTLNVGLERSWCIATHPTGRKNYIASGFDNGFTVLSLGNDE
# Experimental: as §6
# equilibrium association constant (Ka), and enthalpy of binding. All experiments were carried out
# 100 mM NaCl to mimic physiological salt conditions. Wild type yeast α-COP (α1-327) was gel
# Immediately prior to a run, the protein was
# mM NaCl than at 100 mM NaCl.
# and ultraviolet absorbance (Agilent 1200 UV, Agilent Technologies). Samples of β’1-304 or 1-
# the construct lacks the α-solenoid domain. […]
# [5] = molecular target: β'-COP D206A E248A mutant (β'1-304) (Saccharomyces cerevisiae, UniProt P41811, D206A/E248A); assay: biochemical
# Sequence of β'-COP D206A E248A mutant (β'1-304) (P41811 1-304 D206A/E248A): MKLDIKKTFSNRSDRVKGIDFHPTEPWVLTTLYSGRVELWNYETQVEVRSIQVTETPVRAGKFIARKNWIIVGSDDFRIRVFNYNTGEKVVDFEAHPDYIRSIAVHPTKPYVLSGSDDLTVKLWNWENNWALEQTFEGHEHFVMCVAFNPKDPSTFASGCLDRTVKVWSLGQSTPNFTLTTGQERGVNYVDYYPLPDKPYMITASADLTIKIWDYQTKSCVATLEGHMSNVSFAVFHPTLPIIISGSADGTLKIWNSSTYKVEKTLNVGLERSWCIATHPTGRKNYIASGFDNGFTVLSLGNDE
# Experimental: (§7) The β'-COP R15A K17A R59A mutant was designed to disrupt binding to the carboxy terminus of the motif, and the D206A E248A mutant was intended to disrupt binding to the -3 lysine.
# as §1, §5, §6
# [6] = molecular target: β'-COP D98A D117A mutant (β'1-304) (Saccharomyces cerevisiae, UniProt P41811, D117A/D98A); assay: biochemical
# Sequence of β'-COP D98A D117A mutant (β'1-304) (P41811 1-304 D98A/D117A): as the sequence (P41811 1-304 D206A/E248A) above, with D98A, D117A, A206D, A248E counted along it
# Experimental: as §7, §1, §5, §6
# [7] = molecular target: β'-COP R15A K17A R59A mutant (β'1-304) (Saccharomyces cerevisiae, UniProt P41811, K17A/R15A/R59A); assay: biochemical
# Sequence of β'-COP R15A K17A R59A mutant (β'1-304) (P41811 1-304 R15A/K17A/R59A): as the sequence (P41811 1-304 D206A/E248A) above, with R15A, K17A, R59A, A206D, A248E counted along it
# Experimental: as §7, §1, §5, §6
substance,measurement,setting,value
CTFKKTN-OH [KKTN],binding by ITC (in words),[1],no measurable binding
same,binding by ITC (in words),[2],no measurable binding
same,binding by ITC (in words),[3],no measurable binding
KKLIE [KKLIE peptide from p23],binding by ITC (in words),[4],no measurable binding; also recorded: does not bind
KTKLL-CONH2 [amidated KTKLL peptide],binding by ITC (in words),[4],no measurable binding
KTSLL [KTKLL motif variant lacking the -3 lysine],binding by ITC (in words),[4],no measurable binding
RQEIIKTKLL [KTKLL],measured KD at 300 mM NaCl relative to 100 mM NaCl,[4]; ITC control runs in 300 mM NaCl compared to 100 mM NaCl,four- to five-fold weaker
same,Kd,[5],< 300 µM
same,Kd,[6],< 300 µM
same,Kd,[7],< 300 µM
RRVV [RRVV peptide from p24],binding by ITC (in words),[4],no measurable binding
